EC50 and IC50 data for 21 compounds are collected here from patent publication US9139532B2, “Pyrazolyl guanidine F1F0-atpase inhibitors and therapeutic uses thereof” (Lycera Corporation, priority 2010, dated 2015).

In experiment [1] the test system is Ramos cells. Put plainly: Cytotoxicity in Ramos cells. In kind it is cell-based. Conditions: cytotoxicity in Ramos cells, read-out: Ramos Cell EC50.
For experiment [2], the target named is T1, F1F0-ATPase (Bos taurus, UniProt P13621).
T1 construct: from tissue
Put plainly: Inhibition of F1F0-ATPase activity in synthesizing ATP. Conditions: inhibition of ATP synthesis by F1F0-ATPase; read-out: ATP Syn IC50. In kind it is biochemical.

Read-outs that look alike come from different tables or passages of the source. Bounds are passed on as bounds.

With `O=C(/N=C(/Nc1cc(F)cc(Cl)c1)Nc1cc(-c2ccccc2)n[nH]1)c1ccc(F)c(F)c1` [Compound A-436], the EC50 in experiment [1] is above 10 µM. In experiment [2], the IC50 is below 10 µM.
As for `O=C(N=C(Nc1cc(-c2ccc(Cl)cc2)n[nH]1)NC1CCCC1)c1ccc(C(F)(F)F)cc1` [Compound A-239], in experiment [1] (Homo sapiens), the EC50 was above 10 µM. In addition, in experiment [2], the IC50 is below 10 µM.
For `CC(C)(C)NC(=NC(=O)c1ccc(Cl)c(F)c1)Nc1cc(-c2ccc(F)cc2)n[nH]1` [Compound A-152], in that order: below 10 µM and below 10 µM.
For `O=C(N=C(Nc1cc(F)cc(Cl)c1)Nc1cc(-c2cccc(Cl)c2)[nH]n1)c1ccc(F)c(F)c1` [Compound A-442], in that order: below 10 µM and below 10 µM.
Consider `Cc1ccc(-c2cc(N/C(=N\C(=O)c3ccc(F)c(F)c3)NC(C)C)[nH]n2)cc1F` [Compound A-319], for which the EC50 in experiment [1] was below 10 µM. The 50% inhibitory concentration (IC50) in experiment [2] is below 10 µM.
Regarding `CC(=O)Nc1cc(C(=O)N=C(Nc2cc(-c3ccc(F)cc3)[nH]n2)NC(C)(C)C)ccn1` [Compound A-485], the EC50 in experiment [1] (Homo sapiens) was above 10 µM. Besides, the IC50 in experiment [2] is above 10 µM.
Turning to `Cc1ccc(-c2cc(N/C(=N\C(=O)c3ccc(F)c(F)c3)NC3CCC3)[nH]n2)cc1F` [Compound A-320], the EC50 in experiment [1] is below 10 µM. Moreover, in experiment [2], the IC50 was below 10 µM.
In the case of `CC(C)(C)N/C(=N/C(=O)c1ccc(C(F)F)cc1)Nc1cc(C(F)(F)F)[nH]n1` [Compound A-64], the half-maximal effective concentration (EC50) in experiment [1] (Homo sapiens) is below 10 µM. In addition, the IC50 in experiment [2] was below 10 µM.
`CC(C)(C)CN/C(=N/C(=O)c1cccc(C#N)c1)Nc1cc(-c2ccc(F)cc2)[nH]n1` [Compound A-517]: the EC50 in experiment [1] was below 10 µM. Further, the IC50 in experiment [2] is below 10 µM.
As to `COC[C@H](C)N/C(=N/C(=O)c1ccc(C)cc1)Nc1cc(C(F)(F)F)[nH]n1` [Compound A-534], the EC50 in experiment [1] was below 10 µM. The 50% inhibitory concentration (IC50) in experiment [2] is below 10 µM.
For the compound `CC(C)(CO)N/C(=N/C(=O)c1ccc(F)cc1)Nc1cc(C(F)(F)F)[nH]n1` [Compound A-531], in experiment [1], the EC50 is above 10 µM. Also, the IC50 in experiment [2] was below 10 µM.
As for `Cc1cc(N/C(=N\C(=O)c2ccc(C(F)(F)F)cc2)NC(C)(C)C)n[nH]1` [Compound A-125], the EC50 in experiment [1] is below 10 µM. Moreover, the IC50 in experiment [2] is below 10 µM.
Regarding `COCC(C)NC(=NC(=O)c1ccc(F)cc1)Nc1cc(-c2cc(F)cc(F)c2)n[nH]1` (stereo not drawn) [Compound A-275], the EC50 in experiment [1] is below 10 µM. The IC50 in experiment [2] was below 10 µM.
For the compound `CC(C)(C)N/C(=N/C(=O)c1ccc(Cl)c(F)c1)Nc1cc(C(F)(F)F)[nH]n1` [Compound A-40], in experiment [1] (Homo sapiens), the EC50 is below 10 µM. For the same compound, the IC50 in experiment [2] was below 10 µM.
Turning to `Cc1cc(C(=O)/N=C(\Nc2cc(-c3ccc(F)cc3)[nH]n2)N[C@@H](C)CO)ccc1F` [Compound A-405], the EC50 in experiment [1] is below 10 µM. In addition, the IC50 in experiment [2] was below 10 µM.
As for `CCc1cc(C(=O)/N=C(\Nc2cc(-c3ccc(F)cc3)[nH]n2)NC(C)(C)C)ccn1` [Compound A-177], in experiment [1], the EC50 was below 10 µM. Moreover, the half-inhibitory concentration (IC50) in experiment [2] is below 10 µM.
In the case of `Cc1ccc(-c2cc(N/C(=N\C(=O)c3ccc(F)c(F)c3)NC(C)(C)C)[nH]n2)cc1` [Compound A-427], the EC50 in experiment [1] is below 10 µM. Further, in experiment [2], the IC50 is below 10 µM.
On to `O=C(/N=C(\Nc1cc(C(F)(F)F)[nH]n1)NC1CCCCCC1)c1ccc(C(F)(F)F)cc1` [Compound A-14], for which the EC50 in experiment [1] (Homo sapiens) was below 10 µM. Also, the IC50 in experiment [2] was below 10 µM.
For the compound `COc1ccc(-c2cc(N/C(=N\C(=O)c3ccc(Cl)c(F)c3)Nc3cc(F)cc(Cl)c3)n[nH]2)cc1` [Compound A-148], the EC50 in experiment [1] is above 10 µM. Further, in experiment [2], the IC50 was above 10 µM.
Regarding `CCC(C)(C)N/C(=N/C(=O)c1ccc(Cl)c(F)c1)Nc1cc(C(F)(F)F)n[nH]1` [Compound A-116], the EC50 in experiment [1] (Homo sapiens) is below 10 µM. In addition, the IC50 in experiment [2] is below 10 µM.
Consider `COc1ccccc1CN/C(=N/C(=O)c1ccc(C(F)(F)F)cc1)Nc1cc(C(F)(F)F)[nH]n1` [Compound A-424], for which, in experiment [1], the EC50 was below 10 µM. Further, the IC50 in experiment [2] was below 10 µM.

As a reminder, the EC50 is the concentration giving half of the maximal effect. Broadly, the IC50 is the concentration at which inhibition is half-maximal.
